The results in this text go back to patent US6887873B2, “Triazine derivatives and their application as antitelomerase agents” (Aventis Pharma S.A., priority 2001, dated 2005).

For assay [1], the system named is A549 cells. In words: Cytotoxic activity on human tumour line A549, neutral red, 96 hours. As to conditions: Homo sapiens, A549, A549; read-out: Cytotox. A549 IC50. The assay is classed as cell-based. On the procedure:
The cytotoxic biological activity on human tumour lines is determined according to the following experimental protocol:
The human cell lines A549 are obtained from ATCC (American Type Culture Collection, Rockville, USA). The A549 cells are cultured in a layer in a culture flask in RPMI 1640 medium containing L-glutamine at 2 mM, penicillin 200 U/ml, streptomycin 200 μg/ml and supplemented with 10% heat-inactivated foetal calf serum. The KB cells are cultured in a layer in a culture flask in Dulbelco's medium containing L-glutamine at 2 mM, penicillin 200 U/ml, streptomycin 200 μg/ml and supplemented with 10% heat-inactivated foetal calf serum.
The cells at the exponential growth phase are trypsinized, washed in 1×PBS and are inoculated in 96-well microplates (Costar) in an amount of 4×10^4 cells/ml for A549 and of 1.5×10^4 cells/ml (0.2 ml/well) and then incubated for 96 hours in the presence of variable concentrations of product to be studied (10, 1, 0.1 and 0.01 μM, each point in quadruplicate). 16 hours before the end of the incubation, 0.02% final of neutral red is added to each well. At the end of the incubation, the cells are washed with 1×PBS and lysed with 1% sodium lauryl sulphate. The cellular incorporation of the dye, which reflects cellular growth, is evaluated by spectro-photometry at a wavelength of 540 nm for each sample with the aid of a Dynatech MR5000 reading apparatus.
For each compound concentration tested, the results are expressed as percentage of inhibition of cellular growth and calculated from the untreated control and the culture medium free of cells (blank) according to the following formula: (compound value−blank value/cell control value−blank value)×100.
The concentration of compound inducing a 50% inhibition of growth (IC50) is determined with the aid of a semilogarithmic graphical representation of the inhibition values obtained as a function of each of the compound concentrations tested.
A compound is considered to be active as cytotoxic agent if the concentration inhibiting the growth of the tumour cells tested by 50% is in particular less than 10 μM.

Assay [2] deals with human telomerease (HL60 cell extract). In words: Antitelomerease activity: extension of oligonucleotide TS followed by PCR amplification, with HL60 extract. The assay is classed as biochemical. The settings on record: read-out: TRAP IC50. The procedure, abridged:
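HL60 CHAPS-lysate extract extends TS primer (15 min, 30 °C) with compound at 10, 1, 0.1 and 0.01 µM, followed by 30-cycle PCR with TS and CXext. Products resolved on 12% acrylamide and quantified; % inhibition versus enzyme control and blank, IC50 read from semilog plot.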

Assay [3] deals with G-quadruplex of oligonucleotide GGGTTAGGGTTAGGGTTAGGG (3.5 repeats of the human telomereic motif). Kind of assay: G-quadruplex stabilizing activity, fluorescence Tm (FAM+DABCYL oligonucleotide). Format: binding. The procedure, abridged:
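FAM/DABCYL-labelled telomeric oligonucleotide (0.2 μM strand) in 10 mM sodium cacodylate pH 7.6 with 0.1 M LiCl (or NaCl) was annealed, then incubated ≥1 h at 20 °C with compound at 1 μM final. Samples were heated 20→80 °C, with excitation at 470 nm and emission at 515/588 nm. Tm is the 515 nm emission midpoint.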

Structures are written as SMILES.

Take `Cc1cc(N)c2cc(Nc3nc(Nc4ccc5nc(C)cc(N)c5c4)nc(N4CCN(c5ccc6ccccc6n5)CC4)n3)ccc2n1` [Example 71]: the IC50 in assay [1] was found to be 12400 nM; in assay [2], 350 nM.

As to `COc1ccc(CNc2nc(Nc3ccc4nc(C)cc(N)c4c3)nc(Nc3ccc4nc(C)cc(N)c4c3)n2)cc1` [Example 83], the IC50 in assay [1] was 14000 nM; in assay [2] it was 1200 nM.

With `Cc1cc(N(C)C)c2cc(Nc3nc(Nc4ccc5nc(C)cc(N(C)C)c5c4)nc(-c4ccccc4)n3)ccc2n1` [Example 134, 2,4-bis(4-dimethylamino-2-methylquinolin-6-yl)amino-6-phenyl-[1,3,5]triazine], the IC50 in assay [1] is 880 nM.

As for `Cc1cc(N)c2cc(Nc3nc(NCc4ccc(N(C)C)cc4)nc(Nc4ccc5nc(C)cc(N)c5c4)n3)ccc2n1` [Example 85], the figures for the IC50 in assay [1] and in assay [2] were 16000 nM and 3900 nM, respectively.

For `Cc1cc(N)c2cc(Nc3nc(Nc4ccc5nc(C)cc(N)c5c4)nc(Sc4ccccc4)n3)ccc2n1` [Example 117], the IC50 in assay [1] is 19500 nM.

For `Cc1cc(N)c2cc(Nc3nc(Nc4ccc5nc(C)cc(N)c5c4)nc(Nc4ccccn4)n3)ccc2n1` [Example 89], the results for the IC50 in assay [1] and in assay [2] were 20000 nM and 1200 nM, respectively.

In the case of `COCC1CCCN1c1nc(Nc2ccc3nc(C)cc(N(C)C)c3c2)nc(Nc2ccc3nc(C)cc(N(C)C)c3c2)n1` (stereo not drawn) [Example 168], the “G4 delta Tm” value in assay [3] amounted to 16.5 °C. The IC50 in assay [2] amounted to 1100 nM.

With `Cc1cc(N)c2cc(Nc3nc(Nc4ccc5nc(C)cc(N)c5c4)nc(SCCN(C)C)n3)ccc2n1` [Example 132], the “G4 delta Tm” value in assay [3] was determined as 12.5 °C. In addition, the IC50 in assay [2] is 400 nM.

As for `Cc1cc(N)c2cc(Nc3nc(Nc4ccc5nc(C)cc(N)c5c4)nc(N4CCCN(CCCN5CCCC5)CC4)n3)ccc2n1` [Example 76], the “G4 delta Tm” value in assay [3] stood at 19 °C. The IC50 in assay [2] came out at 110 nM.

As to `Cc1cc(N)c2cc(Nc3nc(NCc4ccccc4)nc(Nc4ccc5nc(C)cc(N)c5c4)n3)ccc2n1` [Example 50], the “G4 delta Tm” value in assay [3] is 7 °C. Also, the IC50 in assay [2] turned out to be 220 nM.

Turning to `Cc1cc(N(C)C)c2cc(Nc3nc(NCCO)nc(Nc4ccc5nc(C)cc(N(C)C)c5c4)n3)ccc2n1` [Example 167], in assay [3], the “G4 delta Tm” value turned out to be 6 °C. The IC50 in assay [2] was 1100 nM.

For the compound `Cc1cc(N)c2cc(Nc3nc(Nc4ccc5nc(C)cc(N)c5c4)nc(NC4CCN(C)CC4)n3)ccc2n1` [Example 13], in assay [3], the “G4 delta Tm” value came out at 7.2 °C. In addition, the IC50 in assay [2] stood at 260 nM.

As for `Cc1cc(N)c2cc(Nc3nc(Nc4ccc5nc(C)cc(N)c5c4)nc(N4CCCN(C)CC4)n3)ccc2n1` [Example 42], the “G4 delta Tm” value in assay [3] worked out at 15.5 °C. Besides, in assay [2], the IC50 came out at 50 nM.

`Cc1cc(N(C)C)c2cc(Nc3nc(NCCc4ccccc4)nc(Nc4ccc5nc(C)cc(N(C)C)c5c4)n3)ccc2n1` [Example 26]: the “G4 delta Tm” value in assay [3] stood at 4.8 °C. Also, the IC50 in assay [2] was determined as 1100 nM.

In the case of `Cc1cc(N)c2cc(Nc3nc(Nc4ccc5nc(C)cc(N)c5c4)nc(N4CCN(CCc5ccccc5)CC4)n3)ccc2n1` [Example 57], in assay [3], the “G4 delta Tm” value came to 8 °C. Moreover, the IC50 in assay [2] came to 300 nM.

Turning to `Cc1cc(N)c2cc(Nc3nc(NCCN(C)C)nc(Nc4ccccc4Cl)n3)ccc2n1` [Example 5], the “G4 delta Tm” value in assay [3] came to 2.0 °C. The IC50 in assay [2] was determined as 2700 nM.

By IC50 is commonly meant the concentration at which inhibition is half-maximal.
